{
  "source": "paper PMC4319572",
  "about": "(Structure (London, England : 1993), 2015)",
  "molecules": {"B1": {"name": "Hof1p F-BAR domain (residues 1-300) (domain or fragment, S. cerevisiae, UniProt Q05080 1-300, looked up)", "chain": "MSYSYEACFWDPNDNGVNILLGHISQGIRSCDSMILFFKQRSELEKDYARRLGAITGKLDKDIGTNMDYGKLNETFNVVLSVEKARAQSHSKQSEILFRQIYTDTKAFAANLQARYTTLSGKIERLRMDKFNKKKGCEVLQKKLQDAQIRFRDLQLNENNMIGAKRVEHNKRELLKWESNSQEYKVQLDVLKQEYKASQKFWIHEWAQLSCELQEMENARISFLQSKLQQFATSSMETYILEQTKMDMLTNHLNSFTAADEISTFSKENGTGRLKHKTSKGDMNSSANWAQMSSISTTSK", "modifications": "selenomethionine (SeMet) in the protein used for the crystals"}, "B2": {"name": "Rgd1p F-BAR domain (residues 24-333) (domain or fragment, S. cerevisiae, UniProt P38339 24-333, looked up)", "chain": "DDLAHLFSTPEIKKVLNSDVAINALLSRLKQSLLTCEEFMKFIRKKYAFEEEHVQELSKQYKHFFNIQGSTNSSLKKMIHEVLGFDGKMAQVKQSYITALQKMYSEISSLLLTMTKLRKSVKENSKRLEKDVSDAIHSAEKAQSRYNSLCQDWDKLRMTDPTKTKLTLRGSKTTKEQEEELLRKIDNADLEYKQKVDHSNSLRNTFITKERPRIVQELKDLILEIDTAMTIQLQKYTIWTENLVLNTGVTISPLDSTKSMKSFAGSVSNERDLYSFLNKYNQTGKHSLLINKNLIPVSYKKHPSMNHGQK"}},
  "key": {"[1]": {"target": "T1, Rgd1p F-BAR domain (residues 1-324) (Saccharomyces cerevisiae, UniProt P38339, R141D)", "T1 sequence (P38339 1-324 R141D)": "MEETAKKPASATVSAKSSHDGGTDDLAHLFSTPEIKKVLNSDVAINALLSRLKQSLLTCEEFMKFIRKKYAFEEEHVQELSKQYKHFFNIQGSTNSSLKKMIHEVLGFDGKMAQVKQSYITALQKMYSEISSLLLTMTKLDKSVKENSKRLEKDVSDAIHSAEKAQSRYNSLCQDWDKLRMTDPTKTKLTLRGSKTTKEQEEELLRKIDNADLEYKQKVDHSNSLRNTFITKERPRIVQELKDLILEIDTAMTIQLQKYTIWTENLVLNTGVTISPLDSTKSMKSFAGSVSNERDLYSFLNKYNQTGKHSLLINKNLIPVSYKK", "assay": "surface plasmon resonance", "assay_type": "binding", "settings": "30 μM protein over 10% (mole/mole) PtdIns(4,5)P2 in DOPC"}, "[2]": {"target": "T2, Rgd1p F-BAR domain (residues 1-324) (Saccharomyces cerevisiae, UniProt P38339, R141D/K145E)", "T2 sequence (P38339 1-324 R141D/K145E)": "T1 sequence (P38339 1-324 R141D) with K145E", "assay": "surface plasmon resonance", "assay_type": "binding", "settings": "30 μM protein over 10% (mole/mole) PtdIns(4,5)P2 in DOPC"}, "[3]": {"target": "T3, Rgd1p F-BAR domain (residues 1-324) (Saccharomyces cerevisiae, UniProt P38339, K149E/K153E)", "T3 sequence (P38339 1-324 K149E/K153E)": "T1 sequence (P38339 1-324 R141D) with D141R, K149E, K153E", "assay": "surface plasmon resonance", "assay_type": "binding", "settings": "30 μM protein over 10% (mole/mole) PtdIns(4,5)P2 in DOPC"}, "[4]": {"target": "T4, Rgd1p F-BAR domain (residues 1-324) (Saccharomyces cerevisiae, UniProt P38339, R141D/K142E)", "T4 sequence (P38339 1-324 R141D/K142E)": "T1 sequence (P38339 1-324 R141D) with K142E", "assay": "surface plasmon resonance", "assay_type": "binding", "settings": "30 μM protein over 10% (mole/mole) PtdIns(4,5)P2 in DOPC"}, "[5]": {"target": "T5, Rgd1p F-BAR domain (residues 1-324) (Saccharomyces cerevisiae, UniProt P38339)", "T5 sequence (P38339 1-324)": "T1 sequence (P38339 1-324 R141D) with D141R", "assay": "competition off PtdIns", "assay_type": "binding", "settings": "membranes with 10% (mole/mole) PtdIns(4,5)P2; competitive"}, "crystal structure": {"target": "the molecule itself", "assay": "crystal structure"}, "AUC": {"target": "the molecule itself", "assay": "AUC"}},
  "note": "Substitutions are numbered along the chain they refer to.",
  "data": [
    {"molecule": "CCCCCCCC/C=C\\CCCCCCCC(=O)OC[C@H](COP(=O)(O)O[C@@H]1[C@H](O)[C@H](O)[C@@H](OP(=O)(O)O)[C@H](OP(=O)(O)O)[C@H]1O)OC(=O)CCCCCCC/C=C\\CCCCCCCC", "note": "[dioleoyl-PtdIns(4,5)P2]", "values": [
      {"measurement": "% reduction of binding vs wild type at 30 μM protein", "setting": "[1]", "value": "> 75", "unit": "%"},
      {"measurement": "binding relative to wild type", "setting": "[2]", "value": "as seen for R141D/K142E and R141D/K145E doubly-mutated variants"},
      {"measurement": "binding relative to wild type", "setting": "[3]", "value": "Glutamate substitutions at K149 and K153"},
      {"measurement": "binding relative to wild type", "setting": "[4]", "value": "as seen for R141D/K142E and R141D/K145E doubly-mutated variants"}
    ]},
    {"molecule": "O=P(O)(O)O[C@H]1[C@H](O)[C@@H](O)[C@H](OP(=O)(O)O)[C@@H](OP(=O)(O)O)[C@H]1O", "note": "[isolated headgroup of PtdIns(3,4)P2]", "values": [
      {"measurement": "competition", "setting": "[5]", "value": "isolated headgroups of these three phosphoinositides were equally potent in their ability to compete"}
    ]},
    {"molecule": "O=P(O)(O)O[C@H]1[C@H](O)[C@@H](OP(=O)(O)O)[C@H](O)[C@@H](OP(=O)(O)O)[C@H]1O", "note": "[isolated headgroup of PtdIns(3,5)P2]", "values": [
      {"measurement": "competition", "setting": "[5]", "value": "isolated headgroups of these three phosphoinositides were equally potent in their ability to compete"}
    ]},
    {"molecule": "O=P(O)(O)O[C@@H]1[C@H](O)[C@H](O)[C@@H](OP(=O)(O)O)[C@H](OP(=O)(O)O)[C@H]1O", "note": "[isolated headgroup of PtdIns(4,5)P2]", "values": [
      {"measurement": "competition", "setting": "[5]", "value": "isolated headgroups of these three phosphoinositides were equally potent in their ability to compete"}
    ]},
    {"molecule": "B1", "values": [
      {"measurement": "stoichiometry N", "setting": "crystal structure", "value": 2},
      {"measurement": "Kd", "setting": "AUC", "value": "~3000", "unit": "nM"}
    ]},
    {"molecule": "B2", "values": [
      {"measurement": "stoichiometry N", "setting": "crystal structure", "value": 2}
    ]}
  ]
}
